Source: ChEMBL document CHEMBL1255348, “Susceptibility testing of anidulafungin and voriconazole alone and in combination against conidia and hyphae of Aspergillus spp. under hypoxic conditions” (2008)
Converted amounts (≈) assume the structure as drawn. *1 amine or outer side, *2 acyl side, *3 side chain or, on linkers, in order; H or OH if unused. Where a SMILES comes first, the peptide text is derived from it. Bridges are numbered along the chain shown (N, C = ends). [ ]: non-standard residue; d: D form. The star is where a group is joined. pTerphenylCO(4''-OnC5H11) = CCCCCOc1ccc(-c2ccc(-c3ccc(C(=O)*)cc3)cc2)cc1; Orn(4R-OH,5R-OH) = O=C([C@H](C[C@@H](O)[C@@H](O)N[*:3])N[*:1])[*:2]; hTyr(3S-OH,4S-OH) = N[C@H](C(=O)O)[C@H](O)[C@@H](O)c1ccc(O)cc1; Pro(3S-OH,4S-Me) = C[C@H]1CN[C@H](C(=O)O)[C@H]1O; Hyp = O=C(O)[C@@H]1C[C@@H](O)CN1

How the values were obtained:
Assay type in all cases: functional
[1] = tested on: Aspergillus fumigatus; assay: Antimicrobial activity against Aspergillus fumigatus conidia isolated from aspergillosis patient after 48 hrs under hypoxic condition by broth microdilution method
[2] = tested on: Aspergillus terreus; assay: Antimicrobial activity against Aspergillus terreus conidia isolated from aspergillosis patient after 48 hrs under hypoxic condition by broth microdilution method
[3] = tested on: Aspergillus flavus; assay: Antimicrobial activity against Aspergillus flavus conidia isolated from aspergillosis patient after 48 hrs under hypoxic condition by broth microdilution method
[4] = tested on: Aspergillus niger; assay: Antimicrobial activity against Aspergillus niger conidia isolated from aspergillosis patient after 48 hrs under hypoxic condition by broth microdilution method
[5] = tested on: Aspergillus fumigatus; assay: Antimicrobial activity against Aspergillus fumigatus conidia isolated from aspergillosis patient after 48 hrs under hypoxic condition by broth microdilution method in presence of voriconazole
[6] = tested on: Aspergillus terreus; assay: Antimicrobial activity against Aspergillus terreus conidia isolated from aspergillosis patient after 48 hrs under hypoxic condition by broth microdilution method in presence of voriconazole
[7] = tested on: Aspergillus flavus; assay: Antimicrobial activity against Aspergillus flavus conidia isolated from aspergillosis patient after 48 hrs under hypoxic condition by broth microdilution method in presence of voriconazole
[8] = tested on: Aspergillus niger; assay: Antimicrobial activity against Aspergillus niger conidia isolated from aspergillosis patient after 48 hrs under hypoxic condition by broth microdilution method in presence of voriconazole
[9] = tested on: Aspergillus fumigatus; assay: Antimicrobial activity against Aspergillus fumigatus hyphae isolated from aspergillosis patient after 48 hrs under hypoxic condition by broth microdilution method
[10] = tested on: Aspergillus terreus; assay: Antimicrobial activity against Aspergillus terreus hyphae isolated from aspergillosis patient after 48 hrs under hypoxic condition by broth microdilution method
[11] = tested on: Aspergillus flavus; assay: Antimicrobial activity against Aspergillus flavus hyphae isolated from aspergillosis patient after 48 hrs under hypoxic condition by broth microdilution method
[12] = tested on: Aspergillus niger; assay: Antimicrobial activity against Aspergillus niger hyphae isolated from aspergillosis patient after 48 hrs under hypoxic condition by broth microdilution method
[13] = tested on: Aspergillus fumigatus; assay: Antimicrobial activity against Aspergillus fumigatus hyphae isolated from aspergillosis patient after 48 hrs under hypoxic condition by broth microdilution method in presence of voriconazole
[14] = tested on: Aspergillus terreus; assay: Antimicrobial activity against Aspergillus terreus hyphae isolated from aspergillosis patient after 48 hrs under hypoxic condition by broth microdilution method in presence of voriconazole
[15] = tested on: Aspergillus flavus; assay: Antimicrobial activity against Aspergillus flavus hyphae isolated from aspergillosis patient after 48 hrs under hypoxic condition by broth microdilution method in presence of voriconazole
[16] = tested on: Aspergillus niger; assay: Antimicrobial activity against Aspergillus niger hyphae isolated from aspergillosis patient after 48 hrs under hypoxic condition by broth microdilution method in presence of voriconazole

`CCCCCOc1ccc(-c2ccc(-c3ccc(C(=O)N[C@H]4C[C@@H](O)[C@@H](O)NC(=O)[C@@H]5[C@@H](O)[C@@H](C)CN5C(=O)[C@H]([C@@H](C)O)NC(=O)[C@H]([C@H](O)[C@@H](O)c5ccc(O)cc5)NC(=O)[C@@H]5C[C@@H](O)CN5C(=O)[C@H]([C@@H](C)O)NC4=O)cc3)cc2)cc1` [ANIDULAFUNGIN] ({pTerphenylCO(4''-OnC5H11)}-[Orn(4R-OH,5R-OH)]T[Hyp][hTyr(3S-OH,4S-OH)]T[Pro(3S-OH,4S-Me)]; lactam 1-C) was tested, and the MIC [1] was 0.01 µg/mL (≈ 0.00877 µM), the MIC [2] was 0.01 µg/mL (≈ 0.00877 µM) and the MIC [3] was 0.06 µg/mL (≈ 0.0526 µM). For the same compound, the MIC [4] was 0.008 µg/mL (≈ 0.00702 µM), the “fractional inhibitory concentration index (FICI)” value [5] was 0.7 and the “fractional inhibitory concentration index (FICI)” value [6] was 0.9. The “fractional inhibitory concentration index (FICI)” value [7] was 0.7, the “fractional inhibitory concentration index (FICI)” value [8] was 0.5 and the MIC [9] was 0.03 µg/mL (≈ 0.0263 µM). For the same compound, the MIC [10] was 0.01 µg/mL (≈ 0.00877 µM), the MIC [11] was 0.03 µg/mL (≈ 0.0263 µM) and the MIC [12] was 0.01 µg/mL (≈ 0.00877 µM). The “fractional inhibitory concentration index (FICI)” value [13] was 1, the “fractional inhibitory concentration index (FICI)” value [14] was 0.8 and the “fractional inhibitory concentration index (FICI)” value [15] was 1. For the same compound, the “fractional inhibitory concentration index (FICI)” value [16] was 0.7.
With `C[C@@H](c1ncncc1F)[C@](O)(Cn1cncn1)c1ccc(F)cc1F` [VORICONAZOLE] the MIC [1] was 0.5 µg/mL (≈ 1.43 µM), the MIC [2] was 1 µg/mL (≈ 2.86 µM) and the MIC [3] was 1 µg/mL (≈ 2.86 µM). For the same compound, the MIC [4] was 1 µg/mL (≈ 2.86 µM), the MIC [9] was 1 µg/mL (≈ 2.86 µM) and the MIC [10] was 1 µg/mL (≈ 2.86 µM). For the same compound, the MIC [11] was 2 µg/mL (≈ 5.73 µM) and the MIC [12] was 1 µg/mL (≈ 2.86 µM).
